Experimental data: the supplement of paper PMC10307832

Key:
Assay in all cases: relative viability (nuclei count vs DMSO), 5 days (fraction); higher = more cells survive
[1] = compound: CCn1c(-c2nonc2N)nc2cnc(Oc3cccc(NC(=O)c4ccc(OCCN5CCOCC5)cc4)c3)cc21 + CCNC(=O)c1noc(-c2cc(C(C)C)c(O)cc2O)c1-c1ccc(CN2CCOCC2)cc1 [Luminespib] (partner 0.01 µM)
Outline: (§1)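 The day after seeding in 1536-well plates, lung cancer cell lines were treated by pin tool with a single drug, or with a fixed anchor-drug dose together with five library-drug doses (not always all listed) in √10 steps. After 5 days, a combined fix-and-stain solution (final 0.05% Triton X-100, 1% formaldehyde, 1 ug/ml Hoechst) was added. Nuclei counted on 4× images gave relative viability as treated counts over vehicle counts, reported as the median of duplicate plates.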

[2] = compound: CCC1=CN=CN=C1N2CCN(CC2)CC3=NC4=C(N3)C=C(C=C4)C(F)(F)F + COc1cc2c(Oc3ccc(NC(=O)C4(C(=O)Nc5ccc(F)cc5)CC4)cc3F)ccnc2cc1OCCCN1CCOCC1 [Foretinib] (partner 0.25 µM)
Outline: as §1

[3] = compound: CCn1c(-c2nonc2N)nc2cnc(Oc3cccc(NC(=O)c4ccc(OCCN5CCOCC5)cc4)c3)cc21 + COc1cc2c(Oc3ccc(NC(=O)C4(C(=O)Nc5ccc(F)cc5)CC4)cc3F)ccnc2cc1OCCCN1CCOCC1 [Foretinib] (partner 0.25 µM)
Outline: as §1

Mirin + AZD7762 = compound: N=C1NC(=O)/C(=C/c2ccc(O)cc2)S1 [Mirin] + NC(=O)Nc1cc(-c2cccc(F)c2)sc1C(=O)N[C@H]1CCCNC1 [AZD7762] (partner 0.2 µM)
Outline: as §1

Row | Cell Line | relative viability ([1]; first compound 0.04 µM) | relative viability ([1]; first compound 0.1265 µM) | relative viability ([1]; first compound 0.4 µM) | relative viability ([1]; first compound 1.265 µM) | relative viability ([1]; first compound 4 µM) | relative viability ([2]; first compound 0.04 µM) | relative viability ([2]; first compound 0.1265 µM) | relative viability ([2]; first compound 0.4 µM) | relative viability ([2]; first compound 1.265 µM) | relative viability ([2]; first compound 4 µM) | relative viability ([3]; first compound 0.04 µM) | relative viability ([3]; first compound 0.1265 µM) | relative viability ([3]; first compound 0.4 µM) | relative viability ([3]; first compound 1.265 µM) | relative viability ([3]; first compound 4 µM) | relative viability (Mirin + AZD7762; first compound 0.25 µM) | relative viability (Mirin + AZD7762; first compound 0.7906 µM) | relative viability (Mirin + AZD7762; first compound 2.5 µM) | relative viability (Mirin + AZD7762; first compound 25 µM) | relative viability (Mirin + AZD7762; first compound 7.906 µM)
1 | NCI-H2342 | 0.763 | 0.847 | 0.715 | 0.665 | 0.785 | 1.16 | 0.95 | 0.945 | 0.528 | 0.607 | 1.16 | 1.18 | 1.01 | 0.771 | 0.917 | 0.581 | 0.451 | 0.487 | 0.459 | 
2 | NCI-H358 | 0.667 | 0.302 |  | 0.535 | 0.198 | 0.746 | 0.626 | 0.686 | 0.509 | 0.651 | 0.886 | 0.653 | 0.775 | 0.396 | 0.44 | 0.584 | 0.569 | 0.528 | 0.369 | 0.442
3 | NCI-H1734 | 0.165 | 0.21 | 0.192 | 0.15 | 0.166 | 0.828 | 0.811 | 0.874 | 0.816 | 0.765 | 0.97 | 0.882 | 0.69 | 0.599 | 0.44 | 0.529 | 0.42 | 0.549 | 0.483 | 0.498
4 | A-427 | 1.14 | 0.974 | 0.627 | 0.416 | 0.524 | 1.03 | 1.11 | 1.03 | 0.959 | 0.534 | 1.12 | 0.947 | 1.14 | 1.02 | 1.21 | 0.772 | 0.879 | 0.701 | 0.636 | 0.737
5 | NCI-H838 | 0.366 | 0.235 | 0.252 | 0.2 | 0.208 | 1.1 | 0.986 | 0.958 | 0.888 | 1.09 | 0.771 | 0.7 | 0.562 | 0.378 | 0.371 | 0.984 | 1.05 | 0.907 | 1.06 | 0.915
6 | LCLC-97TM1 | 0.923 | 0.728 | 0.664 | 0.882 | 0.856 | 0.897 | 0.898 | 0.895 | 0.838 | 0.888 | 1.03 | 1.04 | 0.813 | 0.902 | 0.937 | 0.212 |  | 0.263 | 0.329 | 
7 | BEN | 0.496 | 0.235 | 0.158 | 0.163 | 0.249 | 0.368 | 0.522 | 0.527 | 0.343 | 0.374 | 0.668 | 0.449 | 0.338 | 0.346 | 0.351 | 0.711 | 0.711 | 0.735 | 0.494 | 0.574
8 | LC-2-ad | 0.937 | 0.801 | 0.715 | 0.568 | 0.752 | 0.927 | 0.88 | 0.922 | 0.803 | 0.857 | 1 | 0.927 | 0.784 | 0.529 | 0.687 | 0.836 | 0.812 | 0.825 | 0.817 | 0.933
9 | ABC-1 | 0.633 | 0.617 | 0.367 | 0.254 | 0.248 | 1.32 | 1.05 | 1.12 | 1.24 | 0.886 | 0.804 | 1.29 | 1.15 | 0.802 | 0.417 | 0.603 | 0.929 | 0.628 | 0.683 | 0.847
10 | NCI-H650 | 0.959 | 0.741 | 0.424 | 0.242 | 0.296 | 1.16 | 1.09 | 1.05 | 0.934 | 1.03 | 1.12 | 0.774 | 0.531 | 0.366 | 0.438 | 1.1 | 1.03 | 0.968 | 0.974 | 0.992
11 | NCI-H1755 | 0.345 | 0.713 | 0.275 | 0.299 | 0.388 | 0.895 | 0.86 | 0.844 | 0.743 | 0.88 | 0.907 | 0.957 | 0.916 | 0.619 | 0.645 | 0.503 | 0.431 | 0.472 | 0.453 | 0.383
12 | EPLC-272H | 0.263 | 0.697 | 0.265 | 0.26 | 0.286 | 0.787 | 0.787 | 0.688 | 0.653 | 0.639 | 0.829 | 0.766 | 0.753 | 0.74 | 0.716 | 0.239 |  | 0.23 | 0.161 | 0.227
13 | NCI-H1437 | 1.25 | 1.23 | 1.11 | 0.897 | 0.766 | 1.23 | 1.14 | 1.15 | 1.15 | 1.08 | 1.26 | 1.31 | 1.23 | 1.06 | 0.865 | 1.06 | 1.18 | 1.11 | 1.06 | 1.1
14 | EKVX | 1.03 | 0.807 | 0.898 | 0.765 | 0.645 | 0.748 | 0.675 | 0.753 |  | 0.779 | 0.889 | 0.686 | 0.708 | 0.445 | 0.735 | 0.631 | 0.709 | 0.771 | 0.689 | 0.727
15 | NCI-H1651 | 0.843 | 1.14 | 0.71 | 0.689 | 0.491 | 0.934 | 0.704 | 0.861 | 0.709 | 0.667 | 1 | 0.963 | 0.959 | 0.662 | 0.455 | 0.424 | 0.598 | 0.532 | 0.477 | 0.308
16 | HCC-15 | 0.301 | 0.227 | 0.376 | 0.207 | 0.249 | 1.02 | 1.01 | 1.03 | 1 | 1.01 | 1.13 | 0.951 | 0.998 |  | 0.906 | 0.589 | 0.973 | 1.33 | 1.18 | 1.28
17 | LCLC-103H | 1.08 | 1.02 | 1.1 | 0.721 | 0.779 | 0.917 | 0.852 | 0.757 | 0.644 | 0.688 | 0.777 | 0.91 | 0.798 | 0.662 | 0.624 | 0.875 | 0.779 | 0.784 | 0.803 | 0.844
18 | NCI-H2347 | 0.399 | 0.451 | 0.599 | 0.283 | 0.302 | 0.8 | 0.714 | 0.798 |  | 0.896 | 1.08 | 1.27 | 1.26 | 0.459 | 0.585 | 0.946 | 0.786 | 0.861 | 0.704 | 0.669
19 | NCI-H647 | 0.18 | 0.139 | 0.269 | 0.106 | 0.116 | 1.29 | 1.12 | 1.21 | 1.13 | 1.41 | 1.27 | 1.09 | 0.913 | 0.668 | 0.715 | 0.415 | 0.366 | 0.465 | 0.587 | 0.593
20 | NCI-H2085 | 0.535 | 0.395 | 0.373 | 0.365 | 0.377 | 0.971 | 1.13 | 0.792 | 0.76 | 0.959 | 1.2 | 1.15 | 0.93 | 0.858 | 0.806 | 0.929 | 1.11 | 0.979 | 0.883 | 1.02
21 | PC-3 [JPC-3] | 0.849 | 0.73 | 0.718 | 0.726 | 0.626 | 1.08 | 0.9 | 0.997 | 0.964 | 0.971 | 1.06 | 1.08 | 1.11 | 1.01 | 0.942 | 0.88 | 0.782 | 0.896 | 0.989 | 0.843
22 | HOP-62 | 1.11 | 1.01 | 0.936 | 0.764 | 0.735 | 1.14 | 1.12 | 1.07 | 1.25 | 0.942 | 1.12 | 1.22 | 1.02 | 0.864 | 0.789 | 0.729 | 1.08 | 0.478 | 0.383 | 0.549
23 | NCI-H2126 | 1.06 | 0.903 | 0.776 |  | 0.635 | 1.15 | 1.26 | 1.06 | 0.986 | 1.17 | 1.22 | 1.08 |  |  | 1.29 | 1.11 | 1.03 | 1.05 | 0.951 | 1.11
24 | NCI-H2087 | 0.161 | 0.143 | 0.181 | 0.153 | 0.143 | 1 | 1.06 | 0.916 | 1.05 | 0.535 | 1.1 | 0.911 | 1.01 | 0.876 | 0.695 | 1.31 | 1.59 | 1.45 | 1.75 | 1.3
25 | NCI-H1793 | 0.217 | 0.22 | 0.159 | 0.18 | 0.237 | 0.7 | 0.771 | 0.568 |  | 0.669 | 0.712 | 0.572 | 0.734 | 0.76 | 0.725 | 0.468 |  | 0.631 | 0.348 | 0.404
26 | RERF-LC-KJ | 1.35 | 1.21 | 1.04 | 0.795 | 0.64 | 0.763 | 0.755 | 0.82 | 0.851 | 0.82 | 1.02 | 0.829 | 0.74 | 0.532 | 0.532 | 1.17 | 0.878 | 0.953 | 1.08 | 0.814
27 | H3255 | 1.02 | 0.819 | 0.735 | 0.571 | 0.599 | 0.828 | 0.872 | 0.894 | 0.739 | 0.776 | 1.22 | 0.834 | 0.679 | 0.668 | 0.642 | 0.899 | 0.958 | 0.943 | 0.867 | 0.738
